Assay: Rabbit Cornea Homogenate stability (esterase) assay, Method 2
Format: in vitro ADME
Conditions: for Esterase % Lifitegrast formation at 45 min: 37° C., Method 2 (DPBS pH 7.4); for API Formation rate (%/min): Method 2
Protocol: Determining Rabbit Cornea Homogenate stability of the test compounds was performed using HPLC-MS or UPLC-MS. The assay was performed at two concentrations of Rabbit Cornea Homogenate (0.15 mg/mL and 0.45 mg/mL total protein) so that any hydrolysis observed can be assigned as esterase dependent or not.
Three to five rabbit corneas (e.g. New Zealand Whites (NZW) or Dutch Belted (DB)) of approx. 50 mg each were sliced and scraped with a scalpel and tweezers until reduced to small (1-3 mm), thin pieces. These were transferred into a glass vial containing approximately 2 mL of cold DPBS pH 7.4 buffer.
Sample was cooled intermittently on ice and shear homogenized for 3 minutes, then centrifuged for 3 min at 13,000 g. The supernatant was pipetted off into a vial, and total protein concentration determined at 280 nm. Sample was stored at −78° C.
10 mM Compound DMSO stocks were diluted to 10 μM in a glass vial: 10 μL of 10 mM Compound stock was added to 9,990 μL DPBS, pH 7.4 buffer. Esterase homogenate was diluted to 300 ng/μL and 900 ng/μL in DPBS. […]
A heater shaker was set to 37° C. Into a suitable 96 well plate (Run Plate), 80 μL of 300 or 900 ng/μL esterase homogenate was pipetted into two rows as compounds were analyzed in duplicate (0 min, 2 min, 5 min, 10 min, 20 min and 45 min). The plate was sealed and then warmed at 37° C. for 5 min.
Two 96 shallow-well plates were placed on ice (Kill Plates). To these, 180 μL of 60:40 MeCN-H2O+0.1% acetic acid were added to required rows. The plates were sealed to minimise evaporation.
To both rows of the Run Plate, 80 μL of 10 μM compound solution was added. At the appropriate time point, 20 μL of the assay mixture was added to the matching kill plate well containing 180 μL of 60:40 cold MeCN-H2O+0.1% acetic acid. For lipoic acid analysis, samples were analysed as soon as practicable by LCMS (Waters Xevo TQ-S). For parent conjugate and parent analysis the samples were diluted further 1 in 10: 20 μL supernatant was added to 180 μL of 50:50 MeCN—H2O.
Parent conjugate, parent and keratolytic concentrations were determined against appropriate standard response curves and the half-life (T½) of the parent conjugate was calculated using the peak area or the measured concentration of the parent conjugate at each time point in the linear region of the log-linear plot.

[1] = Cornea Homogenate Conc 0.15 mg/mL
[2] = Cornea Homogenate Conc 0.45 mg/mL

API Formation rate (%/min) [1] | API Formation rate (%/min) [2] | SMILES | Esterase % Lifitegrast formation at 45 min [1] | Esterase % Lifitegrast formation at 45 min [2]
a (API formation rate <0.5%/min) | a (API formation rate <0.5%/min) | CC(=O)NC(CSSCC(NC(C)=O)C(=O)OC(C)OC(=O)[C@H](Cc1cccc(S(C)(=O)=O)c1)NC(=O)c1c(Cl)cc2c(c1Cl)CCN(C(=O)c1ccc3ccoc3c1)C2)C(=O)O (stereo partly drawn) [Compound 25] | A (percent active pharmaceutical ingredient (API) formation <25%) | A (percent active pharmaceutical ingredient (API) formation <25%)
a (API formation rate <0.5%/min) | a (API formation rate <0.5%/min) | CC(=O)N1C(C(=O)OC(C)OC(=O)[C@H](Cc2cccc(S(C)(=O)=O)c2)NC(=O)c2c(Cl)cc3c(c2Cl)CCN(C(=O)c2ccc4ccoc4c2)C3)CSC1(C)C (stereo partly drawn) [Compound 26] | A (percent active pharmaceutical ingredient (API) formation <25%) | A (percent active pharmaceutical ingredient (API) formation <25%)
a (API formation rate <0.5%/min) | a (API formation rate <0.5%/min) | CC(=O)N[C@@H](CS)C(=O)OCCOCCOCCOCCOC(=O)OC(C)OC(=O)[C@H](Cc1cccc(S(C)(=O)=O)c1)NC(=O)c1c(Cl)cc2c(c1Cl)CCN(C(=O)c1ccc3ccoc3c1)C2 (stereo partly drawn) [Compound 29] | A (percent active pharmaceutical ingredient (API) formation <25%) | A (percent active pharmaceutical ingredient (API) formation <25%)
a (API formation rate <0.5%/min) | a (API formation rate <0.5%/min) | CC(=O)N[C@@H](CS)C(=O)OCCOCCOCCOCCOCCOCCOCCOCCOC(=O)OC(C)OC(=O)[C@H](Cc1cccc(S(C)(=O)=O)c1)NC(=O)c1c(Cl)cc2c(c1Cl)CCN(C(=O)c1ccc3ccoc3c1)C2 (stereo partly drawn) [Compound 30] | A (percent active pharmaceutical ingredient (API) formation <25%) | A (percent active pharmaceutical ingredient (API) formation <25%)
a (API formation rate <0.5%/min) | b (API formation rate 0.5-1.0%/min) | CS(=O)(=O)c1cccc(C[C@H](NC(=O)c2c(Cl)cc3c(c2Cl)CCN(C(=O)c2ccc4ccoc4c2)C3)C(=O)OCCO)c1 [Compound 32] | A (percent active pharmaceutical ingredient (API) formation <25%) | B (percent API formation 25% to 50%)
b (API formation rate 0.5-1.0%/min) | c (API formation rate 1.0-1.5%/min) | CS(=O)(=O)c1cccc(C[C@H](NC(=O)c2c(Cl)cc3c(c2Cl)CCN(C(=O)c2ccc4ccoc4c2)C3)C(=O)OCCCO)c1 [Compound 33] | B (percent API formation 25% to 50%) | B (percent API formation 25% to 50%)
a (API formation rate <0.5%/min) | a (API formation rate <0.5%/min) | CS(=O)(=O)c1cccc(C[C@H](NC(=O)c2c(Cl)cc3c(c2Cl)CCN(C(=O)c2ccc4ccoc4c2)C3)C(=O)OCCOC(=O)CCCC[C@@H]2CCSS2)c1 [Compound 34] | A (percent active pharmaceutical ingredient (API) formation <25%) | A (percent active pharmaceutical ingredient (API) formation <25%)
a (API formation rate <0.5%/min) | a (API formation rate <0.5%/min) | CS(=O)(=O)c1cccc(C[C@H](NC(=O)c2c(Cl)cc3c(c2Cl)CCN(C(=O)c2ccc4ccoc4c2)C3)C(=O)OCCCOC(=O)CCCC[C@@H]2CCSS2)c1 [Compound 35] | A (percent active pharmaceutical ingredient (API) formation <25%) | A (percent active pharmaceutical ingredient (API) formation <25%)
a (API formation rate <0.5%/min) | b (API formation rate 0.5-1.0%/min) | CS(=O)(=O)c1cccc(C[C@H](NC(=O)c2c(Cl)cc3c(c2Cl)CCN(C(=O)c2ccc4ccoc4c2)C3)C(=O)OCOC(=O)CCCC[C@@H]2CCSS2)c1 [Compound 36] | A (percent active pharmaceutical ingredient (API) formation <25%) | B (percent API formation 25% to 50%)
c (API formation rate 1.0-1.5%/min) | c (API formation rate 1.0-1.5%/min) | CCOC(=O)CCC(=O)OC(C)OC(=O)[C@H](Cc1cccc(S(C)(=O)=O)c1)NC(=O)c1c(Cl)cc2c(c1Cl)CCN(C(=O)c1ccc3ccoc3c1)C2 (stereo partly drawn) [Compound 37] | C (percent API formation 51% to 75%) | D (percent API formation >75%)
d (API formation rate >1.5%/min) | d (API formation rate >1.5%/min) | CC(OC(=O)OCCO)OC(=O)[C@H](Cc1cccc(S(C)(=O)=O)c1)NC(=O)c1c(Cl)cc2c(c1Cl)CCN(C(=O)c1ccc3ccoc3c1)C2 (stereo partly drawn) [Compound 42] | C (percent API formation 51% to 75%) | C (percent API formation 51% to 75%)
b (API formation rate 0.5-1.0%/min) | c (API formation rate 1.0-1.5%/min) | CC(OC(=O)OCCCO)OC(=O)[C@H](Cc1cccc(S(C)(=O)=O)c1)NC(=O)c1c(Cl)cc2c(c1Cl)CCN(C(=O)c1ccc3ccoc3c1)C2 (stereo partly drawn) [Compound 43] | B (percent API formation 25% to 50%) | C (percent API formation 51% to 75%)
a (API formation rate <0.5%/min) | a (API formation rate <0.5%/min) | CC(=O)N[C@@H](CSSCC[C@@H](CCCCC(=O)OC(C)OC(=O)[C@H](Cc1cccc(S(C)(=O)=O)c1)NC(=O)c1c(Cl)cc2c(c1Cl)CCN(C(=O)c1ccc3ccoc3c1)C2)SSC[C@H](NC(C)=O)C(=O)O)C(=O)O (stereo partly drawn) [Compound 44] | A (percent active pharmaceutical ingredient (API) formation <25%) | A (percent active pharmaceutical ingredient (API) formation <25%)
a (API formation rate <0.5%/min) | a (API formation rate <0.5%/min) | CC(OC(=O)OCCOC(=O)CCCC[C@H]1CCSS1)OC(=O)[C@H](Cc1cccc(S(C)(=O)=O)c1)NC(=O)c1c(Cl)cc2c(c1Cl)CCN(C(=O)c1ccc3ccoc3c1)C2 (stereo partly drawn) [Compound 46] | A (percent active pharmaceutical ingredient (API) formation <25%) | A (percent active pharmaceutical ingredient (API) formation <25%)
a (API formation rate <0.5%/min) | a (API formation rate <0.5%/min) | CC(OC(=O)OCCCOC(=O)CCCC[C@@H]1CCSS1)OC(=O)[C@H](Cc1cccc(S(C)(=O)=O)c1)NC(=O)c1c(Cl)cc2c(c1Cl)CCN(C(=O)c1ccc3ccoc3c1)C2 (stereo partly drawn) [Compound 47] | A (percent active pharmaceutical ingredient (API) formation <25%) | A (percent active pharmaceutical ingredient (API) formation <25%)

Source: US20230399317A1, “COMPOUNDS AND METHODS FOR THE TREATMENT OF OCULAR DISORDERS” (Azura Ophthalmics Ltd., priority 2020, published 2023)
